How the values were obtained:
Test in all cases: relative viability (nuclei count vs DMSO), 5 days (fraction); higher = more cells survive
NCI-H1395 = tested on: NCI-H1395
Summary of the method: (§1)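 Relative viability was taken as the ratio of nuclei in treated wells to nuclei in vehicle wells. Lung cancer cell lines in 1536-well plates received compounds by pin tool one day after seeding, either one drug alone or a fixed anchor-drug dose plus five library-drug doses (not always all listed) in √10 steps. Nuclei were counted on 4× images after 5 days of treatment, and values are medians of duplicate plates.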

SK-LU-1 = tested on: SK-LU-1
Summary of the method: as §1

NCI-H838 = tested on: NCI-H838
Summary of the method: as §1

NCI-H1355 = tested on: NCI-H1355
Summary of the method: as §1

SW 1573 = tested on: SW 1573
Summary of the method: as §1

NCI-H2126 = tested on: NCI-H2126
Summary of the method: as §1

NCI-H322M = tested on: NCI-H322M
Summary of the method: as §1

CAL-12T = tested on: CAL-12T
Summary of the method: as §1

LCLC-97TM1 = tested on: LCLC-97TM1
Summary of the method: as §1

NCI-H2347 = tested on: NCI-H2347
Summary of the method: as §1

BEN = tested on: BEN
Summary of the method: as §1

Question: With CCNC(=O)c1noc(-c2cc(C(C)C)c(O)cc2O)c1-c1ccc(CN2CCOCC2)cc1 [Luminespib] + CC1(C)CCC(c2ccc(Cl)cc2)=C(CN2CCN(c3ccc(C(=O)NS(=O)(=O)c4ccc(N[C@H](CCN5CCOCC5)CSc5ccccc5)c(S(=O)(=O)C(F)(F)F)c4)cc3)CC2)C1 [Navitoclax] (partner 0.5 µM) as the molecule, how does the relative viability (NCI-H1395; first compound 0.002 µM) read?
Answer: The relative viability was 1.42.

Question: And the relative viability (NCI-H1395; first compound 0.006325 µM)?
Answer: Its relative viability is 1.16.

Question: What about the relative viability (NCI-H1395; first compound 0.02 µM) of the same molecule?
Answer: Its relative viability is 0.949.

Question: What about the relative viability (NCI-H1395; first compound 0.06325 µM) of the same molecule?
Answer: The relative viability was 0.407.

Question: And the relative viability (NCI-H1395; first compound 0.2 µM)?
Answer: Its relative viability is 0.338.

Question: And the relative viability (SK-LU-1; first compound 0.002 µM)?
Answer: Its relative viability is 0.887.

Question: And the relative viability (SK-LU-1; first compound 0.006325 µM)?
Answer: The relative viability was 0.478.

Question: What about the relative viability (SK-LU-1; first compound 0.02 µM) of the same molecule?
Answer: Its relative viability is 0.505.

Question: And the relative viability (SK-LU-1; first compound 0.06325 µM)?
Answer: Its relative viability is 0.117.

Question: And the relative viability (SK-LU-1; first compound 0.2 µM)?
Answer: The relative viability was 0.0911.

Question: What about the relative viability (NCI-H838; first compound 0.002 µM) of the same molecule?
Answer: Its relative viability is 1.3.

Question: And the relative viability (NCI-H838; first compound 0.006325 µM)?
Answer: Its relative viability is 1.12.

Question: What about the relative viability (NCI-H838; first compound 0.02 µM) of the same molecule?
Answer: Its relative viability is 1.07.

Question: And the relative viability (NCI-H838; first compound 0.06325 µM)?
Answer: The relative viability was 0.18.

Question: What about the relative viability (NCI-H838; first compound 0.2 µM) of the same molecule?
Answer: Its relative viability is 0.193.

Question: What about the relative viability (NCI-H1355; first compound 0.002 µM) of the same molecule?
Answer: Its relative viability is 0.983.

Question: And the relative viability (NCI-H1355; first compound 0.006325 µM)?
Answer: Its relative viability is 0.896.

Question: What about the relative viability (NCI-H1355; first compound 0.02 µM) of the same molecule?
Answer: Its relative viability is 0.473.

Question: What about the relative viability (NCI-H1355; first compound 0.06325 µM) of the same molecule?
Answer: Its relative viability is 0.987.

Question: What about the relative viability (NCI-H1355; first compound 0.2 µM) of the same molecule?
Answer: Its relative viability is 0.968.

Question: And the relative viability (SW 1573; first compound 0.002 µM)?
Answer: The relative viability was 0.927.

Question: And the relative viability (SW 1573; first compound 0.006325 µM)?
Answer: The relative viability was 0.892.

Question: And the relative viability (SW 1573; first compound 0.02 µM)?
Answer: The relative viability was 0.803.

Question: What about the relative viability (SW 1573; first compound 0.06325 µM) of the same molecule?
Answer: The relative viability was 0.0809.

Question: What about the relative viability (SW 1573; first compound 0.2 µM) of the same molecule?
Answer: The relative viability was 0.0666.

Question: What about the relative viability (NCI-H2126; first compound 0.002 µM) of the same molecule?
Answer: The relative viability was 0.852.

Question: And the relative viability (NCI-H2126; first compound 0.006325 µM)?
Answer: Its relative viability is 0.777.

Question: What about the relative viability (NCI-H2126; first compound 0.02 µM) of the same molecule?
Answer: Its relative viability is 0.506.

Question: And the relative viability (NCI-H2126; first compound 0.06325 µM)?
Answer: Its relative viability is 0.864.

Question: What about the relative viability (NCI-H2126; first compound 0.2 µM) of the same molecule?
Answer: The relative viability was 0.874.

Question: What about the relative viability (NCI-H322M; first compound 0.002 µM) of the same molecule?
Answer: Its relative viability is 1.14.

Question: And the relative viability (NCI-H322M; first compound 0.006325 µM)?
Answer: The relative viability was 1.09.

Question: And the relative viability (NCI-H322M; first compound 0.02 µM)?
Answer: Its relative viability is 1.02.

Question: And the relative viability (NCI-H322M; first compound 0.06325 µM)?
Answer: Its relative viability is 1.16.

Question: And the relative viability (NCI-H322M; first compound 0.2 µM)?
Answer: The relative viability was 1.28.

Question: What about the relative viability (CAL-12T; first compound 0.002 µM) of the same molecule?
Answer: The relative viability was 1.47.

Question: And the relative viability (CAL-12T; first compound 0.006325 µM)?
Answer: The relative viability was 1.23.

Question: And the relative viability (CAL-12T; first compound 0.02 µM)?
Answer: Its relative viability is 0.491.

Question: What about the relative viability (CAL-12T; first compound 0.06325 µM) of the same molecule?
Answer: The relative viability was 0.106.

Question: What about the relative viability (CAL-12T; first compound 0.2 µM) of the same molecule?
Answer: The relative viability was 0.116.

Question: What about the relative viability (LCLC-97TM1; first compound 0.002 µM) of the same molecule?
Answer: Its relative viability is 0.3.

Question: What about the relative viability (LCLC-97TM1; first compound 0.006325 µM) of the same molecule?
Answer: The relative viability was 0.538.

Question: What about the relative viability (LCLC-97TM1; first compound 0.02 µM) of the same molecule?
Answer: Its relative viability is 0.31.

Question: And the relative viability (LCLC-97TM1; first compound 0.06325 µM)?
Answer: Its relative viability is 0.411.

Question: What about the relative viability (LCLC-97TM1; first compound 0.2 µM) of the same molecule?
Answer: Its relative viability is 0.338.

Question: What about the relative viability (NCI-H2347; first compound 0.002 µM) of the same molecule?
Answer: The relative viability was 0.794.

Question: And the relative viability (NCI-H2347; first compound 0.02 µM)?
Answer: The relative viability was 0.483.

Question: And the relative viability (NCI-H2347; first compound 0.06325 µM)?
Answer: The relative viability was 0.764.

Question: What about the relative viability (NCI-H2347; first compound 0.2 µM) of the same molecule?
Answer: Its relative viability is 0.275.

Question: What about the relative viability (BEN; first compound 0.002 µM) of the same molecule?
Answer: Its relative viability is 0.0714.

Question: And the relative viability (BEN; first compound 0.006325 µM)?
Answer: The relative viability was 0.0602.

— the supplement of paper PMC10307832
